Common to all, as to assay: inhibition of tumour cell growth, NCI panel, 48 h
The subject of assay [1] is SNB-19 CNS.
The test system of assay [2] is RPMI-8226 leukemia.
The subject of assay [3] is SK-MEL-28 melanoma.
Assay [4] concerns ACHN renal.
The test system of assay [5] is K-562 leukemia.
The test system of assay [6] is 786-0 renal.
Assay [7] concerns HCT-116 colon.
For assay [8], the system named is SK-OV-3 ovarian.
Assay [9] concerns TK-10 renal.
Assay [10] deals with OVCAR-3 ovarian.

“And” between values parts separate entries of the source, which are not always exact repeats. Equal entries are not always repeated.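 How tested: cells in 96-well plates exposed to compound for 48 hours at five concentrations. The concentration for 50% growth inhibition is given as GI50. TGI marks complete inhibition of growth.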 Some results are limits rather than exact numbers.

In the case of `COc1ccccc1Oc1nccc(-c2c(-c3ccc(F)cc3)ncn2C2CCNCC2)n1`, the GI50 in assay [1] was > 25 µM; in assay [2] it was > 19.3 µM; in assay [3] it was > 24.1 µM; in assay [4], 15.4 µM; in [5] it was 8.32 µM; in [6], > 25 µM. Further, the GI50 is 19.6 µM in assay [7], > 25 µM in [8], > 25 µM in assay [9] and > 25 µM in assay [10]. Moreover, the TGI in assay [1], in assay [2], in assay [3], in assay [4], in assay [5] and in assay [6] was > 25 µM in each case. Moreover, the TGI in assay [7], in [8], in assay [9] and in [10] was > 25 µM each time.
For `COc1cc(/C=C2\NC(=O)C(Cc3cc(OC)c(OC)c(C)c3OC)N(C(C)=O)C2=O)c(OC)c(C)c1OC` (stereo not drawn), the TGI in assay [1], in assay [2], in assay [3], in [4], in assay [5] and in [6] was > 100 µM in each case. Moreover, the TGI in assay [7], in assay [8], in assay [9] and in assay [10] was > 100 µM in each case.
With `COc1cc(C(=O)/C=C/c2cccc(Nc3ccnc4cc(Cl)ccc34)c2)cc(OC)c1OC`, the GI50 in [1] is 1.18 µM; in assay [2], 0.312 µM; in assay [3], 1.51 µM; in assay [4], 1.24 µM; in assay [5], 0.403 µM; in assay [6], 0.564 µM. The GI50 in assay [7] is 0.347 µM; in assay [8] it was 1.94 µM; in assay [9], 1.45 µM; in assay [10], 0.389 µM. Besides, the TGI in [1] stood at 2.45 µM; in assay [2], 1.42 µM; in assay [3] it was 3.01 µM; in [4], 2.49 µM; in assay [5] it was 3.23 µM; in [6] it was 1.95 µM. The TGI came to 1.29 µM in assay [7], 4.51 µM in [8], 2.97 µM in assay [9] and 1.39 µM in [10].
`COc1cc2nnc3c4cccnc4[nH]c3c2cc1OC`: the GI50 was 9.04 µM and 2.77 µM in assay [1]; 1.45 µM and 0.187 µM in [2]; 18.8 µM and 4.49 µM in assay [3]; 0.298 µM and 0.333 µM in assay [4]; 0.577 µM in assay [5]; 1.46 µM and 0.319 µM in [6]. The GI50 is 0.292 µM and 0.127 µM in [7]; 8.47 µM and 2.29 µM in assay [8]; 10.3 µM and 2.38 µM in [9]; 1.37 µM and 1.15 µM in assay [10]. Besides, the TGI is 42.4 µM and 15.4 µM in [1]; 50 µM and > 100 µM in assay [3]; 3.54 µM and 1.52 µM in [4]; 50 µM in assay [5]; 7.1 µM and 1.63 µM in [6]; 36 µM and 9.24 µM in [8]. In addition, the TGI was 50 µM and 7.83 µM in [9]; 22.6 µM and 5.5 µM in assay [10].
With `O=NN(CCCl)C(=O)NC1CCC(CC(=O)O)CC1` (stereo not drawn), the TGI in [1], in assay [2], in [3], in [4], in assay [5] and in [6] was > 100 µM in each case. Moreover, the TGI in assay [7], in [8], in assay [9] and in assay [10] was > 100 µM each time.
For `C[C@H](C(=O)O)C(=O)NC(=O)N(Cc1ccccc1)N=O`, the TGI in [1], in assay [2], in [3], in assay [4], in assay [5] and in [6] was > 100 µM in each case. Also, the TGI in [7], in assay [8], in assay [9] and in assay [10] was > 100 µM throughout.
For the molecule `NNC(=O)C(=O)NN=C(C(Cl)(Cl)CO)C(Cl)(Cl)CO`, the TGI in assay [1] is > 100 µM; in [2], > 100 µM; in assay [3], 97.9 µM; in [4] it was > 100 µM; in [5], > 100 µM; in [6], > 100 µM. In addition, the TGI is 66.1 µM in [7], > 100 µM in assay [8], > 100 µM in assay [9] and 68 µM in [10].
For the molecule `CCOC(=O)/C(=C\c1cccc(C)c1)C(C)=O`, the TGI in assay [1] is 36.7 µM; in [2], 32.2 µM; in [3], 30.5 µM; in assay [4], 66 µM; in [5] it was > 100 µM; in [6] it was 26.4 µM. The TGI in assay [7] is 30.4 µM; in assay [8], > 100 µM; in assay [9], 44.3 µM; in assay [10], 28.1 µM.
Take `COc1ccc(/C=C2\C(=O)N(NC(C)=O)c3ccccc32)cc1`: the TGI in assay [1], in [2], in assay [3], in assay [4], in assay [5] and in assay [6] was > 100 µM in each case. In addition, the TGI in assay [7], in [8], in [9] and in assay [10] was > 100 µM throughout.
As to `O=C1N[C@@H]2CCCC[C@@H]2C12CCCCC2`, the TGI in assay [1], in assay [2], in [3], in assay [4], in assay [5] and in assay [6] was > 100 µM in each case. Also, the TGI in [7], in [8], in assay [9] and in assay [10] was > 100 µM in each case.
Regarding `COc1ccc2ccccc2c1C1=NC(C)(C)CO1`, the TGI in [1], in assay [2], in [3], in assay [4], in assay [5] and in assay [6] was > 100 µM each time. Further, the TGI in assay [7], in assay [8], in assay [9] and in [10] was > 100 µM in each case.

The record behind these values is PubChem BioAssay (NCI).
